Results taken from ChEMBL document CHEMBL5465560, “Selectivity Literature for EUbOPEN Chemogenomic Library” (2024).
Each block holds one compound with its values, some of them ahead of it.

Columns and labels:
[1] = target: T1, Ephrin type-A receptor 6 (Homo sapiens) (UniProt Q9UF33); assay: Selectivity interaction (LanthaScreen Eu Kinase Binding Assay) EUB0001632a EPHA6; conditions: at 10 µM
T1 sequence (whole entry): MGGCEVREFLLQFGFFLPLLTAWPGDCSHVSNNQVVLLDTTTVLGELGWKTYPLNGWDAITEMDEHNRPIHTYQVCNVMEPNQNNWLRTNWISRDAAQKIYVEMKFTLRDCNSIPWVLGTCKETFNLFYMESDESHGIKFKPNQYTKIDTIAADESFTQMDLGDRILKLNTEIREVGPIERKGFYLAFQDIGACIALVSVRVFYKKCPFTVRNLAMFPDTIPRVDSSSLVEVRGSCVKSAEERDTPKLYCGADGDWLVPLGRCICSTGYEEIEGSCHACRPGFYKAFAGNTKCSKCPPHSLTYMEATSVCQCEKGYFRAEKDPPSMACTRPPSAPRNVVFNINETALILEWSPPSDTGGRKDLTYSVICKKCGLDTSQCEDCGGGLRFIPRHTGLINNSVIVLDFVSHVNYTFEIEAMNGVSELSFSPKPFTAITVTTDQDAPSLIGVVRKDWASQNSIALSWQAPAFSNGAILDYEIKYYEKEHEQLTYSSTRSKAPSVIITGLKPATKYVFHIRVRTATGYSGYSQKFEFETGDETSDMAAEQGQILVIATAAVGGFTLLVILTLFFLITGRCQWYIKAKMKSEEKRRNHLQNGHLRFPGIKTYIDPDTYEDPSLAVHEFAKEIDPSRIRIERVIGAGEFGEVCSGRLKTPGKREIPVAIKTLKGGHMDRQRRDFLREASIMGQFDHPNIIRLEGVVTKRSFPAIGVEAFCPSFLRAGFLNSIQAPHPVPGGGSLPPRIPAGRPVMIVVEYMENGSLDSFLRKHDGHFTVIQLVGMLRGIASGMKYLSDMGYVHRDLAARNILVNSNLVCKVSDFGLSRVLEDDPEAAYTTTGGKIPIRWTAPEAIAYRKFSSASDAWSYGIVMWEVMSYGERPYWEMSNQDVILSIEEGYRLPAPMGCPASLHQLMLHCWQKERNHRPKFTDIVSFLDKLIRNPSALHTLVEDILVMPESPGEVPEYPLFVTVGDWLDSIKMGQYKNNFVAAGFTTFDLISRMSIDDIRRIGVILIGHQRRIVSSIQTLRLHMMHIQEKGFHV

[2] = target: T2, Myosin-IIIb (Homo sapiens) (UniProt Q8WXR4); assay: Selectivity interaction (KinomeScan (DiscoverX)) EUB0000655a MYO3B; conditions: at 10 µM
T2 sequence (whole entry): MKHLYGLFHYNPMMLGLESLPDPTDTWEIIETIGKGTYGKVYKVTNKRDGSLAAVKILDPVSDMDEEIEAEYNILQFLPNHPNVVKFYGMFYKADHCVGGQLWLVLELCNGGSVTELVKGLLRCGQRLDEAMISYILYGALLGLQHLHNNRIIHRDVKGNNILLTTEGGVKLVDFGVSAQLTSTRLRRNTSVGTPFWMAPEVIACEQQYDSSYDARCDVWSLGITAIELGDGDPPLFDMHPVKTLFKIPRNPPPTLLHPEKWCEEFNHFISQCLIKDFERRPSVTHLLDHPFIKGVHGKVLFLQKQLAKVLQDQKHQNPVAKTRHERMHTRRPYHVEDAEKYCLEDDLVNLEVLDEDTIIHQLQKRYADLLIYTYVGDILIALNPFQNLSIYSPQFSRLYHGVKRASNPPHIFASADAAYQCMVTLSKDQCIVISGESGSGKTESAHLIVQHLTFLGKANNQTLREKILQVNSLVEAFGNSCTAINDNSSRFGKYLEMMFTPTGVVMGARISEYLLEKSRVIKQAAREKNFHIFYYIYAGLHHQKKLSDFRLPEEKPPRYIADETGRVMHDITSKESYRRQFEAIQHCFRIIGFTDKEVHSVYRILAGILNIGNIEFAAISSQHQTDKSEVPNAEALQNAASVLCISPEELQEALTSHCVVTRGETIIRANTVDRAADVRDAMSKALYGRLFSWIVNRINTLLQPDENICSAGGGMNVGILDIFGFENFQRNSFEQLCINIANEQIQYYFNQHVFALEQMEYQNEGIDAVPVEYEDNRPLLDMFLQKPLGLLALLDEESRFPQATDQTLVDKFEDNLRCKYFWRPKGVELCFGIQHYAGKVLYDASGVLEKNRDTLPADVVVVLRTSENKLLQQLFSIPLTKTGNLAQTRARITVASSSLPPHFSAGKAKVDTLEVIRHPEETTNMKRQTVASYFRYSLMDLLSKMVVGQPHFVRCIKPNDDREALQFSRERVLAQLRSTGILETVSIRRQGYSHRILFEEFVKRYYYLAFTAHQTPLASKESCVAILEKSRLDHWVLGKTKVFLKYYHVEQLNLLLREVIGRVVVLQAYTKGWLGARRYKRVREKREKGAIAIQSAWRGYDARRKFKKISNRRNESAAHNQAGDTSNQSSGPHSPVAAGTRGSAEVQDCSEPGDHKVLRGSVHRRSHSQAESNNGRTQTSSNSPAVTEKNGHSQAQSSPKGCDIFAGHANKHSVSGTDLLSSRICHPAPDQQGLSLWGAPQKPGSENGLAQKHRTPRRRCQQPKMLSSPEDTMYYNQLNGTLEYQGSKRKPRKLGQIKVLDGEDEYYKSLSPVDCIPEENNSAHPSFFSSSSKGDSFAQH

[3] = Selectivity interaction (KinomeScan (DiscoverX)) EUB0000045b CDK2H; conditions: at 1 µM
[4] = target: Non-receptor tyrosine-protein kinase TYK2 (Homo sapiens, UniProt P29597); assay: Selectivity interaction (KinomeScan (DiscoverX)) EUB0000045b TYK2; conditions: at 10 µM
[5] = target: Tyrosine-protein kinase Fgr (Homo sapiens) (UniProt P09769); assay: Selectivity interaction (KinomeScan (DiscoverX)) EUB0000618a FGR; conditions: at 10 µM
Chain of Tyrosine-protein kinase Fgr (Homo sapiens) (P09769 2-529 limits assumed): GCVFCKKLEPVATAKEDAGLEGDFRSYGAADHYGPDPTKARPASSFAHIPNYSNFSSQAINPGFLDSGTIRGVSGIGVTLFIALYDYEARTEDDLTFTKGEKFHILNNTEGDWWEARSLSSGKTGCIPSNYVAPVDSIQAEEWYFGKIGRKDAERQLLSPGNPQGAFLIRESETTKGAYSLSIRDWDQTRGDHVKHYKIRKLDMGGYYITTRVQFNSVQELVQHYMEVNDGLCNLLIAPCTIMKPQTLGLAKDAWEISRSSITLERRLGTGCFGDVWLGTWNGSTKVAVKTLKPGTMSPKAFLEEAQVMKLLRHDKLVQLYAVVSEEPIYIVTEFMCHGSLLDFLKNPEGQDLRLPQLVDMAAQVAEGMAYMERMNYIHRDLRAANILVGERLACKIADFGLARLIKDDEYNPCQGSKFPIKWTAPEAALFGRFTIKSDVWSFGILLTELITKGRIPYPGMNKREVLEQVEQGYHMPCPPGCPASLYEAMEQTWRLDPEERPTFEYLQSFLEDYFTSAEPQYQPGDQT

Chain of Non-receptor tyrosine-protein kinase TYK2 (P29597 whole entry): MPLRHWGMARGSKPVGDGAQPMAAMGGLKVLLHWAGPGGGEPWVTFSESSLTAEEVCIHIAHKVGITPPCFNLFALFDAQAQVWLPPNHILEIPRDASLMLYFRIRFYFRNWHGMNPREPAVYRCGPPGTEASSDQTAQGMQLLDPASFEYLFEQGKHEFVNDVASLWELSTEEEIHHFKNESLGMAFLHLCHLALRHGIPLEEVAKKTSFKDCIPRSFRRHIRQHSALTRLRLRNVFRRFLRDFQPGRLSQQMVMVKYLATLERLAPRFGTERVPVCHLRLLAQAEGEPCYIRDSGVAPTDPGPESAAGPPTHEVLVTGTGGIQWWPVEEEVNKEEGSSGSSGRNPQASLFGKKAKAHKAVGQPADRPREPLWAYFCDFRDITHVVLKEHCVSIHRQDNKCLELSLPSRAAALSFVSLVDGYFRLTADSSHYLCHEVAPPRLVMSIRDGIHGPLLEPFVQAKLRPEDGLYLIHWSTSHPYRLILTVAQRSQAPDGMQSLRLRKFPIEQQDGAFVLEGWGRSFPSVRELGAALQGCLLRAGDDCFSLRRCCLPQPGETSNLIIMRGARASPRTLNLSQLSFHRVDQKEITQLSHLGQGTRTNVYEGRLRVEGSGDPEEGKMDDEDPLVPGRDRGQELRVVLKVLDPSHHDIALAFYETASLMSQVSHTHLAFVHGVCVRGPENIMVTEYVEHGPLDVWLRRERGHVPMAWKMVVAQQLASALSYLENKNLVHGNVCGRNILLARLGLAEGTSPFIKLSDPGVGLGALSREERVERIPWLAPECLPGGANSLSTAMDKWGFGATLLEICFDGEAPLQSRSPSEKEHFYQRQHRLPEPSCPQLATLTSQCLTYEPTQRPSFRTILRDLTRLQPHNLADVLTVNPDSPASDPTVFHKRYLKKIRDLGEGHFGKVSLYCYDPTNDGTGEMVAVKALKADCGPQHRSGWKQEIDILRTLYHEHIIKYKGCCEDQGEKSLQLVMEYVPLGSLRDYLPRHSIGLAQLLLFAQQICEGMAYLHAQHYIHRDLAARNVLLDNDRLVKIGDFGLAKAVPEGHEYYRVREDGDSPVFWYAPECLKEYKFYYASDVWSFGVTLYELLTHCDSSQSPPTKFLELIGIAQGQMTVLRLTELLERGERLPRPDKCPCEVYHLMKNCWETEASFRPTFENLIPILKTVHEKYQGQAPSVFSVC

% of inhibition [1]: -24%
Structure (SMILES): Cn1cc(-n2cnc3c(NCc4nc5cc(Cl)c(Cl)cc5[nH]4)nc(N4CCOCC4)nc32)cn1

Structure (SMILES): CN(C)CCOc1ccc(-c2nc(-c3ccncc3)c(-c3ccc4c(c3)CC/C4=N\O)[nH]2)cc1
% of control [2]: 81%

Structure (SMILES): C=CC(=O)Nc1cc(-n2c(=O)ccc3cnc4ccc(-c5ccc(NS(C)(=O)=O)cc5)cc4c32)ccc1C
% of control [3]: 100% | % of control [4]: 100%

Structure (SMILES): O[C@H]1CC[C@H](Nc2ncc3nc(Nc4c(F)cc(F)cc4F)n([C@H]4CCOC4)c3n2)CC1
% of control [5]: 84%
